Data reported in patent publication US8936728B2, “Chemicals for oil spill cleanup” (priority 2010, dated 2015).

Tested on: fresh water minnows
Experiment: Toxicity tests using fresh water minnows
Format: in vivo
Conditions: test water containing 25 ppm; control water without the phosphonium bromide
Description: Toxicity tests were conducted using fresh water minnows. The fresh water minnows were placed in test water containing 25 ppm dodecylbenzyldimethyl phosphonium bromide and in a control water sample without the phosphonium bromide.

## CCCCCCCCCCCC[P+](C)(C)Cc1ccccc1.[Br-] [dodecylbenzyldimethyl phosphonium bromide]
  number of fresh water minnows dying over a given time in the test water versus control: about the same as in the control
